In patent publication US7678918B2, “Intermediates for imidazonaphthyridines” (3M Innovative Properties Company, priority 1997, dated 2010):

Key:
TNF = assay: Cytokine Induction in Human Cells: tumor necrosis factor (TNF) secreted by PBMCs, ELISA; type: cell-based; conditions: 18 to 24 hours; also: call rule not given here
Outline: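 Human donor PBMCs at 1.5-2×10^6 cells/mL in RPMI with 10% FBS were exposed to compound, generally at 0.1 to 100 μM (≤1% DMSO final), for 18 to 24 h at 37 °C. Secreted TNF in supernatant was measured by ELISA and reported as pg/mL.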

IFN = assay: Cytokine Induction in Human Cells: interferon (IFN) secreted by PBMCs, A549/encephalomyocarditis bioassay; type: cell-based; conditions: 18 to 24 hours; also: call rule not given here
Outline: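 Human PBMCs from healthy donors at 1.5-2×10^6 cells/mL in RPMI with 10% FBS, exposed to compounds (typically 0.1 to 100 μM, ≤1% DMSO) for 18 to 24 h at 37° C. Secreted IFN measured by A549/encephalomyocarditis virus cytopathic-effect bioassay, in alpha reference units/mL against NIH human leukocyte IFN standard.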

| Compound | TNF induction (TNF; Dose Concentration 0.1 μM) | TNF induction (TNF; Dose Concentration 1.0 μM) | TNF induction (TNF; Dose Concentration 10.0 μM) | TNF induction (TNF; Dose Concentration 100.0 μM) | IFN induction (IFN; Dose Concentration 0.1 μM) | IFN induction (IFN; Dose Concentration 1.0 μM) | IFN induction (IFN; Dose Concentration 10.0 μM) | IFN induction (IFN; Dose Concentration 100.0 μM) | melting point [°C] |
| --- | --- | --- | --- | --- | --- | --- | --- | --- | --- |
| CCCCc1nc2c(N)nc3cccnc3c2n1CCNC(=O)Cn1cc(C)c(=O)[nH]c1=O [Example 114, N^1-[4-(4-Amino-2-butyl-1H-imidazo[4,5-c][1,5]naphthyridin-1-yl)ethyl]-2-(5-methyl-2,4-dioxo-1,2,3,4-tetrahydro-1-pyrimidinyl)acetamide] | − | − | + | + | − | − | + | + | 241 to 242 |
| CCOCc1nc2c(N)nc3cccnc3c2n1Cc1ccccc1 [Example 70, 2-Ethoxymethyl-1-phenylmethyl-1H-imidazo[4,5-c][1,5]naphthyridin-4-amine] | − | + | + | − | + | + | + | − | 173 to 174 |
| CCCCc1nc2c(N)nc3cccnc3c2n1CCCCN [Example 46, 4-(4-Amino-2-butyl-1H-imidazo[4,5-c][1,5]naphthyridin-1-yl)butaneamine] | + | + | + | + | + | + | + |  | 212 to 213 |
| CCCCc1nc2c(N)nc3cccnc3c2n1CCCCNC(=O)CSc1ccncc1 [Example 110, N^1-[4-(4-Amino-2-butyl-1H-imidazo[4,5-c][1,5]naphthyridin-1-yl)butyl]-2-(4-pyridylsulfanyl)acetamide] | − | + | + | + | + | + | + | + | 127.5 to 129 |
| CCCCc1nc2c(N)nc3cccnc3c2n1CCNC(=O)c1cc(C(C)(C)C)c(O)c(C(C)(C)C)c1 [Example 95, N^1-[2-(4-amino-2-butyl-1H-imidazo[4,5-c][1,5]naphthyridin-1-yl)ethyl]-3,5-di-(1,1-dimethylethyl)-4-hydroxybenzamide] | − | − | + | + | ± | + | + | + | 248 to 250 |
| CCCCc1nc2c(N)nc3cccnc3c2n1CCNC(=O)Cc1cccc(O)c1 [Example 98, N^1-[2-(4-Amino-2-butyl-1H-imidazo[4,5-c][1,5]naphthyridin-1-yl)ethyl]-2-(3-hydroxyphenyl)acetamide] | − | + | + | + | − | + | + | + | 208 to 210 |
| CCCCc1nc2c(N)nc3cccnc3c2n1CCNC(=O)c1cccc(O)n1 [Example 99, N-[2-(4-Amino-2-butyl-1H-imidazo[4,5-c][1,5]naphthyridin-1-yl)ethyl]-6-hydroxy-2-pyridinecarboxamide] | − | − | + | + | − | − | + | + | 258 to 260 |
| CCCCc1nc2c(N)nc3cccnc3c2n1CCOc1ccccc1 [Example 85, 2-Butyl-1-(2-phenoxyethyl)-1H-imidazo[4,5-c][1,5]naphthyridin-4-amine] | − | + | + | − | + | + | + | − | 159 to 159.2 |
| CCCCc1nc2c(N)nc3cccnc3c2n1CCNC(=O)c1c(C)noc1C [Example 103, N-[2-(4-Amino-2-butyl-1H-imidazo[4,5-c][1,5]naphthyridin-1-yl)ethyl]-3,5-dimethyl-4-isoxazolecarboxamide] | − | − | + | + | − | − | + | + | 188 to 189 |
| CCCCc1nc2c(N)nc3cccnc3c2n1CCCOC(C)C [Example 75, 2-Butyl-1-(3-isopropoxypropyl)-1H-imidazo[4,5-c][1,5]naphthyridine-4-amine] | − | − | + | − | − | + | + | + | 174 to 175 |
| CCCCOCCCn1c(CCCC)nc2c(N)nc3cccnc3c21 [Example 80, 1-(3-Butoxypropyl)-2-butyl-1H-imidazo[4,5-c][1,5]naphthyridin-4-amine] | − | − | + | − | − | + | + | − | 101 to 101.5 |
| NCCCCn1cnc2c(N)nc3cccnc3c21 [Example 111, 4-(4-amino-1H-imidazo[4,5-c][1,5]naphthyridin-1-yl)butaneamine] | − | − | + | + | − | − | + | + | 161 to 163 |
| CCCCc1nc2c(N)nc3cccnc3c2n1CCNC(C)=O [Example 92, N^1-[2-(4-Amino-2-butyl-1H-imidazo[4,5-c][1,5]naphthyridin-1-yl)ethyl]acetamide] | − | + | + | + | ± | + | + | + | 228 to 230 |
| CCCCc1nc2c(N)nc3cccnc3c2n1CCCCNC(=O)Cn1cc(C)c(O)nc1=O [Example 108, N^1-[4-(4-Amino-2-butyl-1H-imidazo[4,5-c][1,5]naphthyridin-1-yl)butyl]-2-(4-hydroxy-5-methyl-2-oxo-1,2-dihydro-1-pyrimidinyl)acetamide] | ± | − | + | + | + | + | + | + | 242 to 244 |
| C/C=C/C(=O)NCCn1c(CCCC)nc2c(N)nc3cccnc3c21 [Example 93, N^1-[2-(4-Amino-2-butyl-1H-imidazo[4,5-c][1,5]naphthyridin-1-yl)ethyl]-(E)-2-butenamide] | − | + | + | + | − | + | + | + | 198 to 200 |
